This is an account of results in patent US6218431A, “Substituted biphenyls” (Bayer Corporation, priority 1997, dated 2001).

In the first experiment the target is T1, glucagon receptor (Homo sapiens, UniProt P47871).
T1 construct: expressed in transfected cells; host or cells: Chinese Hamster Ovary cells (CHO-HGR), membranes
T1 sequence (P47871 26-477): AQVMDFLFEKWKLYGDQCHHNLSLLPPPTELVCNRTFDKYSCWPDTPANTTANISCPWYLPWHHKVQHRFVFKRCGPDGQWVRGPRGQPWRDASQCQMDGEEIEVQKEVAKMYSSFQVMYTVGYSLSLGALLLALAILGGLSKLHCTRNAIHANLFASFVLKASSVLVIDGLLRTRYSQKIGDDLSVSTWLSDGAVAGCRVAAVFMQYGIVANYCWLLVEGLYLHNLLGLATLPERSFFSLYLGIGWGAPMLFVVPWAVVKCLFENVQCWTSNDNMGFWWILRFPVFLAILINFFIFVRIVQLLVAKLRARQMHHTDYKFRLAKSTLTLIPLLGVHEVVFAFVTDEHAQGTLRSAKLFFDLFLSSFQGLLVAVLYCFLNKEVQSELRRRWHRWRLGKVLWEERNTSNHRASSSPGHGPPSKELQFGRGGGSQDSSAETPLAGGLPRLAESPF
The experiment can be described thus: glucagon receptor binding assay (125I-glucagon, CHO-HGR membranes). The following applies: 20 μM; reported where 20 μM did not reduce glucagon binding by 50%. In short, it runs like this: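 Membranes from CHO cells expressing glucagon receptor (10 ug protein) in Tris pH 7.4 buffer with EDTA, BSA and bacitracin, incubated with test compound and 125I-glucagon (9 fmol) 60 min at room temperature. Bound radioactivity counted after filtration; nonspecific binding defined with 1 μM native glucagon; 0.5% DMSO.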
On to `CCCC=Cc1c(C(C)C)nc(C(C)C)c(CO)c1-c1ccccc1OCc1ccccc1` [Example 162, 2,6-Diisopropyl-3-hydroxymethyl-4-(2-benzyloxyphenyl)-5-(pent-1-enyl)pyridine], for which the inhibition at 20 µM came out at 13.9%.
Same read-out and setting: the result for `CCCCCc1c(C(C)C)nc(C(C)C)c(CO)c1-c1ccc(OC)cc1` [Example 169, 2,6-Diisopropyl-3-hydroxymethyl-4-(4-methoxyphenyl)-5-pentyl-pyridine] reads 37.1%.
On to `CCCC=Cc1c(C(C)C)nc(C(C)C)c(CO)c1-c1cccc(OC)c1` [Example 170, 2,6-Diisopropyl-3-hydroxymethyl-4-(3-methoxyphenyl)-5-(pent-1-enyl)pyridine], for which the inhibition at 20 µM is 45.5%.
Take `CCCCCc1c(C(C)C)nc(C(C)C)c(CO)c1-c1cccc(OC)c1` [Example 171, 2,6-Diisopropyl-3-hydroxymethyl-4-(3-methoxyphenyl)-5-pentylpyridine]: the “% Inhibition (20 μM)” value came to 48.37%.
The compound `CCCCCc1c(C(C)C)nc(C(C)C)c(CO)c1-c1ccccc1OC` [Example 173, 2,6-Diisopropyl-3-hydroxymethyl-4-(2-methoxyphenyl)-5-pentylpyridine] showed an inhibition at 20 µM of 27.4%.
Compound `CCCC=Cc1c(C(C)C)nc(C(C)C)c(CO)c1-c1ccc(SC)cc1` [Example 174, 2,6-Diisopropyl-3hydroxymethyl-4-[4-(methylthio)phenyl]-5-(pent-1-enyl)pyridine] came in with an inhibition at 20 µM of 33.4%.
The same measure, in the same setting: the result for `CCCC=Cc1c(C(C)C)nc(C(C)C)c(CO)c1-c1ccc([S+](C)[O-])cc1` (stereo not shown) [Example 175, 2,6-Diisopropyl-3-hydroxymethyl-4-[4-(methylsulfinyl)phenyl]-5-(pent-1-enyl)pyridine] reads 40.9%; that for `CCCC=Cc1c(C(C)C)nc(C(C)C)c(CO)c1-c1ccc(S(C)(=O)=O)cc1` [Example 176, 2,6-Diisopropyl-3-hydroxymethyl-4-[4-(methylsulfonyl)phenyl]-5-(pent-1-enyl)pyridine], 13.8%.
The same measure, in the same setting: the result for `CCCCCc1c(C(C)C)nc(C(C)C)c(CO)c1-c1ccc(F)c(C(O)c2ccc(F)cc2)c1` (stereo not drawn) [Example 181, 2,6-Diisopropyl-3-hydroxymethyl-4-[4-fluoro-3-(α-hydroxy-4-fluorobenzyl)phenyl]-5-pentylpyridine] reads 46%; that for `CCCCCc1c(C(C)C)nc(C(C)C)c(CO)c1-c1ccc(F)c(C(C)O)c1` (stereo not shown) [Example 182, 2,6-Diisopropyl-3-hydroxymethyl-4-[4-fluoro-3-(1-hydroxyethyl)phenyl]-5-pentylpyridine], 49.1%; that for `C=CCc1c(C)cc(C)c(C(C)O)c1-c1ccc(F)cc1` (stereo not shown) [Example 196, 3,5-Dimethyl-2-(1-hydroxyethyl)-6-(prop-2-enyl)-4'-fluoro-1,1'-biphenyl], 40.3%.
On the same count and under the same terms, the value for `CCCCCc1c(CN2CCOCC2)nc(C(C)C)c(CO)c1-c1ccc(F)cc1` [Example 199, 2-Morpholinomethyl-3-pentyl-4-(4-fluorophenyl)-5-hydroxymethyl-6-isopropylpyridine] was 8.67%.
`CCCCCc1c(CO)nc(C(C)C)c(CO)c1-c1ccc(F)cc1` [Example 200, 2,5-Bis(hydroxymethyl)-3-pentyl-4-(4-fluorophenyl)-6-isopropylpyridine] registered an inhibition at 20 µM of 32.8%.
On the same count and under the same terms, the result for `CCCCCc1c(COC)nc(C(C)C)c(CO)c1-c1ccc(F)cc1` [Example 201, 2-Methoxymethyl-3-pentyl-4-(4-fluorophenyl)-5-hydroxymethyl-6-isopropylpyridine] reads 46.7%; that for `C=CC(O)c1nc(C(C)C)c(CO)c(-c2ccc(F)cc2)c1CCCCC` (stereo not shown) [Example 206, 2-(1-Hydroxyprop-2-enyl)-3-pentyl-4-(4-fluorophenyl)-5-hydroxymethyl-6-isopropylpyridine], 44.6%.
Same read-out and setting: the value for `CCCCCc1c(C(C)(C)O)nc(C(C)C)c(CO)c1-c1ccc(F)cc1` [Example 219, 2-(1-Hydroxy-1-methylethyl)-3-pentyl-4-(4-fluorophenyl)-5-hydroxymethyl-6-isopropylpyridine] was 5.11%.

Still in this experiment, the particulars now being: 125I-glucagon; 60 min at room temperature; read-out: IC50.
For the compound `CCCCCc1c(C(C)C)nc(C(C)C)c(CO)c1-c1ccccc1O` [Example 163, 2,6-Diisopropyl-3-hydroxymethyl-4-(2-hydroxyphenyl)-5-pentylpyridine], the IC50 was 0.5 µM.
The same measure, in the same setting: the value for `CCCCCc1c(C(C)C)nc(C(C)C)c(CO)c1-c1cccnc1` [Example 186, 2,6-Diisopropyl-3-hydroxymethyl-4-(pyridin-3-yl)-5-pentylpyridine] was 20 µM; that for `CCCC=Cc1c(C(C)C)nc(C(C)C)c(CO)c1-c1ccoc1` [Example 187, 2,6-Diisopropyl-3-hydroxymethyl-4-(3-furyl)-5-(pent-1-enyl)pyridine] was 12 µM.
On the same count and under the same terms, the value for `CCCCCc1c(C(C)C)nc(C(C)C)c(CO)c1-c1ccoc1` [Example 188, 2,6-Diisopropyl-3-hydroxymethyl-4-(3-furyl)-5-pentylpyridine] was 10.5 µM; that for `CCCCCc1c(C(C)C)cc(C(C)C)c(CO)c1-c1ccc(F)cc1` [Example 190, 3,5-Diisopropyl-2-hydroxymethyl-6-pentyl-4'-fluoro-1,1'-biphenyl] was 0.3 µM.
Still for that read-out and setting: the value for `CCCCCc1c(C(C)C)cc(C(C)C)c(C(C)O)c1-c1ccc(F)cc1` (stereo not shown) [Example 191, 3,5-Diisopropyl-2-(1-hydroxyethyl)-6-pentyl-4'-fluoro-1,1'-biphenyl] was 0.13 µM.
As to `CCCC=Cc1c(C(C)C)cc(C(C)C)c(CO)c1-c1ccc(F)cc1` [Example 194, 3,5-Diisopropyl-2-hydroxymethyl-6-(pent-1-enyl)-4'-fluoro-1,1'-biphenyl], the IC50 amounted to 1 µM.
On the same count and under the same terms, the value for `CCCc1c(C)cc(C)c(C(C)O)c1-c1ccc(F)cc1` (stereo not shown) [Example 195, 3,5-Dimethyl-2-(1-hydroxyethyl)-6-propyl-4'-fluoro-1,1'-biphenyl] was 12 µM; that for `CCCCCc1c(C(C)C)nc(C)c(CO)c1-c1ccc(F)cc1` [Example 198, 2-Isopropyl-3-pentyl-4-(4-fluorophenyl)-5-hydroxymethyl-6-methylpyridine] was 17 µM.
Same read-out and setting: the value for `CCCCCc1c(COCC)nc(C(C)C)c(CO)c1-c1ccc(F)cc1` [Example 202, 2-Ethoxymethyl-3-pentyl-4-(4-fluorophenyl)-5-hydroxymethyl-6-isopropylpyridine] was 9 µM; that for `C=CCOCc1nc(C(C)C)c(CO)c(-c2ccc(F)cc2)c1CCCCC` [Example 203, 2-(Prop-2-enyloxy)methyl-3-pentyl-4-(4-fluorophenyl)-5-hydroxymethyl-6-isopropylpyridine] was 6.3 µM.
Same read-out and setting: the value for `C=CCC(O)c1nc(C(C)C)c(CO)c(-c2ccc(F)cc2)c1CCCCC` (stereo not shown) [Example 205, 2-(1-Hydroxybut-3-enyl)-3-pentyl-4-(4-fluorophenyl)-5-hydroxymethyl-6-isopropylpyridine] was 18 µM; that for `CCCCCc1c(C(C)O)nc(C(C)C)c(CO)c1-c1ccc(F)cc1` (stereo not shown) [Example 210, 2-(1-Hydroxyethyl)-3-pentyl-4-(4-fluorophenyl)-5-hydroxymethyl-6-isopropylpyridine] was 18 µM.
Turning to `CCCCCc1c(C(O)CC)nc(C(C)C)c(CO)c1-c1ccc(F)cc1` (stereo not shown) [Example 212, 2-(1-Hydroxypropyl)-3-pentyl-4-(4-fluorophenyl)-5-hydroxymethyl-6-isopropylpyridine], the IC50 is 14 µM.
As for `C=Cc1nc(C(C)C)c(CO)c(-c2ccc(F)cc2)c1CCCCC` [Example 214, 2-Ethenyl-3-pentyl-4-(4-fluorophenyl)-5-hydroxymethyl-6-isopropylpyridine], the IC50 was determined as 5 µM.
Still for that read-out and setting: the result for `CCCCCc1c(C=CC(=O)OC)nc(C(C)C)c(CO)c1-c1ccc(F)cc1` [Example 215, 2-(2-Carbomethoxyethenyl)-3-pentyl-4-(4-fluorophenyl)-5-hydroxymethyl-6-isopropylpyridine] reads 19 µM; that for `CCCCCc1c(C(C)OCC)nc(C(C)C)c(CO)c1-c1ccc(F)cc1` (stereo not shown) [Example 217, 2-(1-Ethoxyethyl)-3-pentyl-4-(4-fluorophenyl)-5-hydroxymethyl-6-isopropylpyridine], 8 µM.
On the same count and under the same terms, the result for `CCCCCc1c(C(C)=O)nc(C(C)C)c(CO)c1-c1ccc(F)cc1` [Example 218, 2-Acetyl-3-pentyl-4-(4-fluorophenyl)-5-hydroxymethyl-6-isopropylpyridine] reads 6.5 µM; that for `CCCCCc1c(C=C(C)C)nc(C(C)C)c(CO)c1-c1ccc(F)cc1` [Example 226, 2-Isopropyl-3-hydroxymethyl-4-(4-fluorophenyl)-5-pentyl-6-(2-methylpropenyl)pyridine], 3 µM; that for `CCCCCc1c(CCc2ccccc2)nc(C(C)C)c(CO)c1-c1ccc(F)cc1` [Example 227, 2-Isopropyl-3-hydroxymethyl-4-(4-fluorophenyl)-5-pentyl-6-(2-phenylethyl)pyridine], 1.3 µM.
`CCCCCc1c(CC(C)C)nc(C(C)C)c(CO)c1-c1ccc(F)cc1` [Example 228, 2-Isopropyl-3-hydroxymethyl-4-(4-fluorophenyl)-5-pentyl-6-(2-methylpropyl)pyridine]: the IC50 amounted to 2 µM.
Regarding `CCCCCc1c(CCC(C)C)nc(C(C)C)c(CO)c1-c1ccc(F)cc1` [Example 229, 2-Isopropyl-3-hydroxymethyl-4-(4-fluorophenyl)-5-pentyl-6-(3-methylbutyl)pyridine], the 50% inhibitory concentration (IC50) stood at 0.8 µM.

Staying with this experiment, now noted: IC50, 125I-glucagon; 60 min at room temperature.
Compound `CCCCCc1c(C)nc(C(C)C)c(CO)c1-c1ccc(F)cc1` [Example 197, 2-Isopropyl-3-hydroxymethyl-4-(4-fluorophenyl)-5-pentyl-6-methyl-pyridine] yielded a half-inhibitory concentration (IC50) of 7 µM.
The compound `CCCCCc1c(C(O)CCC)nc(C(C)C)c(CO)c1-c1ccc(F)cc1` (stereo not shown) [Example 211, 2-(1-Hydroxybutyl)-3-pentyl-4-(4-fluorophenyl)-5-hydroxymethyl-6-isopropylpyridine] returned an IC50 of 19 µM.
